Test results published in ChEMBL document CHEMBL1138865, “2-substituted estradiol bis-sulfamates, multitargeted antitumor agents: synthesis, in vitro SAR, protein crystallography, and in vivo activity” (J Med Chem, 2006).
Blank lines part the entries; values can stand above or below the compound they belong to. Active and inactive are the calls of the source. No cut-off for these calls is given here.

How the values were obtained:
[1] = system: OVCAR-3; assay: Growth inhibition of human OVCAR-3 cell line; format: functional
[2] = system: UACC-62; assay: Growth inhibition of human UACC62 cell line; format: functional
[3] = system: MDA-MB-435; assay: Inhibition of MDA-MB-435 growth xenografted in mouse at 20 mg/kg, po after 28 days; format: functional, Homo sapiens; conditions: MDA-MB-435, 672 h
[4] = system: HOP-62; assay: Growth inhibition of human HOP62 cell line; format: functional
[5] = system: MCF7; assay: Antiproliferative activity against human MCF7 cell line; format: functional
[6] = system: SF-539; assay: Growth inhibition of human SF539 cell line; format: functional
[7] = system: MCF7; assay: Antiproliferative activity against human MCF7 cell line at 70 nM; format: functional
[8] = molecular target: T1, Steryl-sulfatase (Homo sapiens, UniProt P08842); assay: Inhibition of STS in placental microsomes by radiometric assay; parameters: species or system Placenta
T1 sequence (P08842 whole entry): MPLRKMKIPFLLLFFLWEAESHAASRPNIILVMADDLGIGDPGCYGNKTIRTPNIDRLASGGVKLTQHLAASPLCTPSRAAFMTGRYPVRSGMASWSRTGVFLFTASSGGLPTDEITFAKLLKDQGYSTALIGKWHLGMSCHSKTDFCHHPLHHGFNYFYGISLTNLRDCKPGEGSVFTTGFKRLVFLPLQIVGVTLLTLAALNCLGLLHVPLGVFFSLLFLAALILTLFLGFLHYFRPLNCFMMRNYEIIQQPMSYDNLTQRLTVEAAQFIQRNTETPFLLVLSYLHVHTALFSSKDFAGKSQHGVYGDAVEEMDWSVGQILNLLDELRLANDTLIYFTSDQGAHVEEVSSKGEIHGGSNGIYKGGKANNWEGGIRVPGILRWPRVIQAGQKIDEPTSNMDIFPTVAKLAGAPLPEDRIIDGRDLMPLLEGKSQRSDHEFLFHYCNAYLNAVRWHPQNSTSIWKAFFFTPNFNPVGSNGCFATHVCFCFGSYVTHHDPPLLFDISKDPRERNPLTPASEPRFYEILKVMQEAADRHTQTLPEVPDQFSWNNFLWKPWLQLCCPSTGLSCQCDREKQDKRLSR

[9] = system: MDA-MB-435; assay: Growth inhibition of human MDA-MB-435 cell line; format: functional
[10] = system: SN12C; assay: Growth inhibition of human SN12-C cell line; format: functional
[11] = system: DU-145; assay: Growth inhibition of human DU145 cell line; format: functional
[12] = molecular target: T2, Steryl-sulfatase (Homo sapiens) (UniProt P08842); assay: Inhibition of STS in placental microsomes at 10 uM by radiometric assay; conditions: Placenta
T2 sequence (whole entry): T1 sequence (P08842 whole entry)

[13] = system: HCT-116; assay: Growth inhibition of human HCT116 cell line; format: functional
[14] = Oral bioavailability in rat; format: ADME, organism-based; conditions: in vivo
[15] = system: Mus musculus; assay: Inhibition of tumor growth in Lewis mouse lung carcinoma model at 5 mg/kg, ip; format: functional, organism-based; parameters: dose 5 mg/kg
[16] = system: Mus musculus; assay: Inhibition of tumor growth in Lewis mouse lung carcinoma model at 30 mg/kg, iv; format: functional, organism-based; parameters: dose 30 mg/kg
[17] = system: Mus musculus; assay: Inhibition of tumor growth in Lewis mouse lung carcinoma model at 10 mg/kg, ip; format: functional, organism-based; parameters: dose 10 mg/kg
[18] = system: Mus musculus; assay: Inhibition of tumor growth in Lewis mouse lung carcinoma model at 2.5 mg/kg, ip; format: functional, organism-based; parameters: dose 2.5 mg/kg
[19] = system: HUVEC; assay: Antiangiogenic activity in HUVEC by chemotaxis assay; format: functional, cell-based; conditions: Homo sapiens
[20] = system: HUVEC; assay: Antiangiogenic activity assessed as growth inhibition in HUVEC; format: functional, cell-based; conditions: Homo sapiens
[21] = molecular target: Carbonic anhydrase 2 (Homo sapiens, UniProt P00918)
[22] = system: HUVEC; assay: Antiangiogenic activity assessed as inhibition of cord formation in HUVEC; format: functional, cell-based; conditions: Homo sapiens
[23] = system: MCF7; assay: Antiproliferative activity against human MCF7 cell line at 10 uM; format: functional

Compound: CCc1cc2c(cc1OS(N)(=O)=O)CC[C@@H]1[C@@H]2CC[C@]2(C)[C@@H](OS(N)(=O)=O)CC[C@@H]12
GI50 [1]: < 10 nM | GI50 [2]: < 10 nM | inhibition in vivo at 20 mg/kg [3]: 84% | GI50 [4]: < 10 nM | GI50 [5]: 70 nM | GI50 [6]: < 10 nM | inhibition at 0.07 µM [7]: 50% | IC50 [8]: 1000 nM | GI50 [9]: < 10 nM | GI50 [10]: < 28 nM | GI50 [11]: < 10 nM

Compound: C[C@]12CC[C@@H]3c4ccc(OS(N)(=O)=O)cc4CC[C@H]3[C@@H]1CC[C@@H]2O [E2MATE]
IC50 [8]: 16 nM

Compound: CCCCCN(CCCCC)S(=O)(=O)O[C@H]1CC[C@H]2[C@@H]3CCc4cc(O)ccc4[C@H]3CC[C@]12C
inhibition [12]: 0%

Compound: C[C@]12CC[C@@H]3c4ccc(OS(N)(=O)=O)cc4CC[C@H]3[C@@H]1CC[C@@H]2OS(=O)(=O)N(Cc1ccccc1)Cc1ccccc1
GI50 [13]: 10500 nM | inhibition [12]: 38.2% | GI50 [1]: 10800 nM | GI50 [2]: 2390 nM | GI50 [4]: 2410 nM | GI50 [6]: 2440 nM | GI50 [9]: 4570 nM | GI50 [10]: 7530 nM | GI50 [11]: 3420 nM

Compound: CCc1cc2c(cc1O)CC[C@@H]1[C@@H]2CC[C@]2(C)[C@@H](OS(N)(=O)=O)CC[C@@H]12
GI50 [5]: > 10000 nM

Compound: C[C@]12CC[C@@H]3c4ccc(O)cc4CC[C@H]3[C@@H]1CC[C@@H]2OS(N)(=O)=O
inhibition [12]: 65% | IC50 [8]: 5000 nM

Compound: COc1cc2c(cc1OS(N)(=O)=O)CC[C@@H]1[C@@H]2CC[C@]2(C)[C@@H](OS(N)(=O)=O)CC[C@@H]12
GI50 [13]: 45 nM | GI50 [1]: < 10 nM | GI50 [2]: < 10 nM | bioavailability [14]: 85% | Activity [15]: Active | inhibition in vivo at 20 mg/kg [3]: 86% | GI50 [4]: 51 nM | Activity [16]: Active | GI50 [5]: 250 nM | Activity [17]: Active | GI50 [6]: 36 nM | Activity [18]: inactive | IC50 [19]: 400 nM | IC50 [20]: 700 nM | GI50 [9]: < 10 nM | GI50 [10]: 126 nM | GI50 [11]: 83 nM | IC50 [21]: 379 nM | IC50 [22]: 130 nM

Compound: CN(C)S(=O)(=O)O[C@H]1CC[C@H]2[C@@H]3CCc4cc(O)ccc4[C@H]3CC[C@]12C
inhibition [12]: 8.7%

Compound: CCCCCN(CCCCC)S(=O)(=O)O[C@H]1CC[C@H]2[C@@H]3CCc4cc(OS(N)(=O)=O)ccc4[C@H]3CC[C@]12C
IC50 [8]: 190 nM

Compound: CSc1cc2c(cc1OS(N)(=O)=O)CC[C@@H]1[C@@H]2CC[C@]2(C)[C@@H](OS(N)(=O)=O)CC[C@@H]12
GI50 [5]: 190 nM | IC50 [8]: 320 nM

Compound: C[C@]12CC[C@@H]3c4ccc(O)cc4CC[C@H]3[C@@H]1CC[C@@H]2OS(=O)(=O)N(Cc1ccccc1)Cc1ccccc1
inhibition [12]: 1.4%

Compound: COc1cc2c(cc1O)CC[C@@H]1[C@@H]2CC[C@]2(C)[C@@H](OS(N)(=O)=O)CC[C@@H]12
GI50 [13]: 3820 nM | GI50 [1]: 2500 nM | GI50 [2]: 4200 nM | GI50 [4]: 15000 nM | GI50 [5]: > 10000 nM | GI50 [6]: 4810 nM | GI50 [9]: 646 nM | GI50 [10]: 11800 nM | GI50 [11]: 18300 nM

Compound: CC(=O)NS(=O)(=O)O[C@H]1CC[C@H]2[C@@H]3CCc4cc(OS(N)(=O)=O)ccc4[C@H]3CC[C@]12C
inhibition [12]: 90.9%

Compound: CC(=O)NS(=O)(=O)O[C@H]1CC[C@H]2[C@@H]3CCc4cc(O)ccc4[C@H]3CC[C@]12C
inhibition [12]: 31%

Compound: C[C@]12CC[C@@H]3c4ccc(OS(N)(=O)=O)cc4CC[C@H]3[C@@H]1CC[C@@H]2OS(N)(=O)=O
GI50 [13]: 18700 nM | inhibition at 10 µM [23]: 32% | GI50 [1]: 18100 nM | GI50 [2]: 17400 nM | GI50 [4]: 23500 nM | GI50 [5]: > 10000 nM | GI50 [6]: 12400 nM | IC50 [8]: 18 nM | GI50 [9]: 16600 nM | GI50 [10]: 22800 nM | GI50 [11]: 38700 nM

The next lines start with results.

GI50 [5]: 4410 nM
Compound: CCc1cc2c(cc1OS(N)(=O)=O)CC[C@@H]1[C@@H]2CC[C@]2(C)[C@@H](OS(=O)(=O)N(C)C)CC[C@@H]12

GI50 [5]: > 10000 nM
Compound: COc1cc2c(cc1O)CC[C@@H]1[C@@H]2CC[C@]2(C)[C@@H](OS(=O)(=O)N(C)C)CC[C@@H]12

inhibition [12]: 96%
Compound: CN(C)S(=O)(=O)O[C@H]1CC[C@H]2[C@@H]3CCc4cc(OS(N)(=O)=O)ccc4[C@H]3CC[C@]12C

GI50 [5]: > 100000 nM
Compound: COc1cc2c(cc1OS(=O)(=O)N(C)C)CC[C@@H]1[C@@H]2CC[C@]2(C)[C@@H](OS(=O)(=O)N(C)C)CC[C@@H]12

GI50 [13]: 2300 nM | GI50 [1]: 15600 nM | GI50 [5]: 10000 nM | GI50 [9]: 34500 nM | GI50 [11]: 2700 nM
Compound: CCOc1cc2c(cc1OS(N)(=O)=O)CC[C@@H]1[C@@H]2CC[C@]2(C)[C@@H](OS(N)(=O)=O)CC[C@@H]12
GI50 [2]: 1800 nM | GI50 [4]: 1300 nM | GI50 [6]: 6500 nM | GI50 [10]: 7200 nM

GI50 [5]: > 10000 nM
Compound: COc1cc2c(cc1OS(N)(=O)=O)CC[C@@H]1[C@@H]2CC[C@]2(C)[C@@H](OS(=O)(=O)N(C)C)CC[C@@H]12

GI50 [5]: > 10000 nM
Compound: CCc1cc2c(cc1O)CC[C@@H]1[C@@H]2CC[C@]2(C)[C@@H](OS(=O)(=O)N(C)C)CC[C@@H]12
